Each structure is given as a SMILES string.

SERT (hSERT), sequence (P31645 whole entry): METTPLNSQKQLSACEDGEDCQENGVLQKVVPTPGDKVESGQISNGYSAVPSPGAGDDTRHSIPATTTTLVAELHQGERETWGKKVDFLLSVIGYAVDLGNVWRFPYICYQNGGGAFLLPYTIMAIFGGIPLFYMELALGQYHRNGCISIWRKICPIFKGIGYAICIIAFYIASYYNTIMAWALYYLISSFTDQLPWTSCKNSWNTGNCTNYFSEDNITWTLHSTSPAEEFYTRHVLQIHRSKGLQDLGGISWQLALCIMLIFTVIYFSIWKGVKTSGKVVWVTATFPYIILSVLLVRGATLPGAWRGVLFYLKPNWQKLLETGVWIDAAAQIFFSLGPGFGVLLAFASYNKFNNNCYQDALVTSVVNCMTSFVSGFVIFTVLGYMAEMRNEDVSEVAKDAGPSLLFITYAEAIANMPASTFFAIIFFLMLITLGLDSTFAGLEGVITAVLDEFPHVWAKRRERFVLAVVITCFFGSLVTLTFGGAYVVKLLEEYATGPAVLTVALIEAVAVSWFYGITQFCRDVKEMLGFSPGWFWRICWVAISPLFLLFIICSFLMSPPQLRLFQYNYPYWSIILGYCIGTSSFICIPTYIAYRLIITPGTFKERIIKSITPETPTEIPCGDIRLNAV
GAT1 (hGAT1), sequence (P30531 whole entry): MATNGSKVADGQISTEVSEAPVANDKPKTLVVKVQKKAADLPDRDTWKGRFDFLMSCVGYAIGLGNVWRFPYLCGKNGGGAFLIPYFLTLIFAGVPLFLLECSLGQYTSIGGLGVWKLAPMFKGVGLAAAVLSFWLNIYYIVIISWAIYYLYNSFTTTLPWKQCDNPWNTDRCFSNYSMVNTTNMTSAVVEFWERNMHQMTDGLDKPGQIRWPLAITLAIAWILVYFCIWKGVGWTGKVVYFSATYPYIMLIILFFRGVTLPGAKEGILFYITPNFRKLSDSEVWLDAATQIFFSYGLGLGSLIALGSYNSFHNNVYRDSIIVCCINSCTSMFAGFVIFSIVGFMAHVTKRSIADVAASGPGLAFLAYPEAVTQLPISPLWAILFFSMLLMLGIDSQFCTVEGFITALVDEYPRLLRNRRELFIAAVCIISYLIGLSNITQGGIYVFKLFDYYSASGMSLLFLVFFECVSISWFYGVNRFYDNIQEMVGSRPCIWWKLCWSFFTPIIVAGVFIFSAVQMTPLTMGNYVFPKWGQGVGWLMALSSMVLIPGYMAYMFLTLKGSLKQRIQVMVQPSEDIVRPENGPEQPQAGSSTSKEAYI

The first assay addresses GAT1 (hGAT1) (Homo sapiens, UniProt P30531). Briefly: 3H-GABA uptake inhibition, HEK293, 384-well. It is filed as cell-based.
Settings: not given
What is called IC50 is the concentration at which inhibition is half-maximal. For `COc1cc(C2C3=C(CC(C)(C)CC3=O)Nc3ccccc3N2C(=O)c2ccccc2)ccc1O` (centres unmarked) [11v], the IC50 is greater than 80000 nM.

In a further assay the test system is NTT4/SLC6A17 (NTT4-B^0AT2 chimera). Kind of assay: 3H-proline uptake inhibition, HEK293, 384-well. It counts as cell-based. The conditions noted are these: blanket statement for all 1,5-benzodiazepine analogs.
Compound `COc1cc(C2C3=C(CC(C)(C)CC3=O)Nc3ccccc3N2C(=O)c2ccccc2)ccc1O` (centres unmarked) [11v] had an IC50 greater than 80000 nM.

For a further assay, the target named is T1, B^0AT2/SLC6A15 (eGFP-hSLC6A15) (Homo sapiens, UniProt Q9H2J7).
T1 sequence (Q9H2J7 1-730): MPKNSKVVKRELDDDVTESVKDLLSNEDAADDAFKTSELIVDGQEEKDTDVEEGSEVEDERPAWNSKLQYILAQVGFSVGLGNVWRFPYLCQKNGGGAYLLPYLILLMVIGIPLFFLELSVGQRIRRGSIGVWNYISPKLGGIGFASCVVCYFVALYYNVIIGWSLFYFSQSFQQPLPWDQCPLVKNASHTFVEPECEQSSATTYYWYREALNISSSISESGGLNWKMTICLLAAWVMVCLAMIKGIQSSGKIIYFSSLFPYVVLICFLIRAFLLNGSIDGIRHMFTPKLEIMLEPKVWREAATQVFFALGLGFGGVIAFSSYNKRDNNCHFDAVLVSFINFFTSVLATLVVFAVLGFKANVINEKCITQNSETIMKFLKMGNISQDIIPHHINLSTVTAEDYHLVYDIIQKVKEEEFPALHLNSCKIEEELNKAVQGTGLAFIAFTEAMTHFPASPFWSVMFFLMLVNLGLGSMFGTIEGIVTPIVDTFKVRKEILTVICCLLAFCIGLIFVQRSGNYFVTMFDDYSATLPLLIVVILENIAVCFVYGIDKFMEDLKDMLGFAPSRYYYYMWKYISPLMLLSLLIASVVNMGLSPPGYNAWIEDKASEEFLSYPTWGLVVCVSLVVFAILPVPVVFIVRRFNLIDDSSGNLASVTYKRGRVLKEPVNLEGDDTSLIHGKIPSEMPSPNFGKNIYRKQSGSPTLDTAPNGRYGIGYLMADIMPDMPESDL
Kind of assay: cell-based. Further details: species or system HEK293 eGFP-hSLC6A15.
Settings: not given
`CC(C)Oc1ccc(C2C3=C(CC(C)(C)CC3=O)Nc3ccccc3N2C(=O)c2ccccc2)cc1` (centres unmarked) [11h] registered an IC50 of 1100 ± 100 nM. Same read-out and setting: the result for `COc1cc(C2C3=C(CC(C)(C)CC3=O)Nc3ccccc3N2C(=O)c2ccccc2)ccc1O` (centres unmarked) [11v] reads 240 ± 20 nM; that for `CC1(C)CC(=O)C2=C(C1)Nc1ccccc1N(C(=O)c1ccccc1)C2c1ccccc1` (centres unmarked) [11a], 1200 ± 100 nM. Same read-out and setting: the value for `CC1(C)CC(=O)C2=C(C1)Nc1ccccc1N(C(=O)c1ccccc1)C2c1ccc(Cl)cc1` (centres unmarked) [11c] was 900 ± 100 nM; that for `CC1(C)CC(=O)C2=C(C1)Nc1ccccc1N(C(=O)c1ccccc1)C2c1ccc(Cl)c(Cl)c1` (centres unmarked) [11z] was 2300 ± 400 nM. In turn, `CCCOc1ccc(C2C3=C(CC(C)(C)CC3=O)Nc3ccccc3N2C(=O)c2ccccc2)cc1OC` (centres unmarked) [11y] returned an IC50 of 1100 ± 100 nM.

Consider `COC(=O)c1ccc(C2C3=C(CC(C)(C)CC3=O)Nc3ccccc3N2C(=O)c2ccccc2)cc1` (centres unmarked) [11m], for which the IC50 came out at 1800 ± 300 nM. On the same count and under the same terms, the result for `CCOc1ccc(C2C3=C(CC(C)(C)CC3=O)Nc3ccccc3N2C(=O)c2ccccc2)cc1` (centres unmarked) [11g] reads 500 ± 50 nM; that for `COc1ccc(C2C3=C(CC(C)(C)CC3=O)Nc3ccccc3N2C(=O)c2ccccc2)cc1` (centres unmarked) [11f], 400 ± 30 nM. On the same count and under the same terms, the value for `CC(=O)Oc1cccc(C2C3=C(CC(C)(C)CC3=O)Nc3ccccc3N2C(=O)c2ccccc2)c1` (centres unmarked) [11r] was 640 ± 70 nM.

The compound `COc1cc(C2C3=C(CC(C)(C)CC3=O)Nc3ccccc3N2C(=O)c2ccccc2)cc(OC)c1OC` (centres unmarked) [11ab] had an IC50 of 11300 ± 14900 nM. The same measure, in the same setting: the result for `CC1(C)CC(=O)C2=C(C1)Nc1ccccc1N(C(=O)c1ccccc1)C2c1ccc(C#N)cc1` (centres unmarked) [11e] reads 730 ± 40 nM; that for `CCCOc1cccc(C2C3=C(CC(C)(C)CC3=O)Nc3ccccc3N2C(=O)c2ccccc2)c1` (centres unmarked) [11q], 720 ± 70 nM; that for `COc1ccccc1C1C2=C(CC(C)(C)CC2=O)Nc2ccccc2N1C(=O)c1ccccc1` (centres unmarked) [11u], greater than 60000 nM.

Turning to `CC1(C)CC(=O)C2=C(C1)Nc1ccccc1N(C(=O)c1ccccc1)C2c1ccc(Br)cc1` (centres unmarked) [11d], the IC50 was 740 ± 70 nM. On the same count and under the same terms, the value for `CC1(C)CC(=O)C2=C(C1)Nc1ccccc1N(C(=O)c1ccccc1)C2c1cccc(F)c1` (centres unmarked) [11o] was 22900 ± 14700 nM. Same read-out and setting: the result for `CCCCOc1ccc(C2C3=C(CC(C)(C)CC3=O)Nc3ccccc3N2C(=O)c2ccccc2)cc1` (centres unmarked) [11i] reads 580 ± 30 nM; that for `CC1(C)CC(=O)C2=C(C1)Nc1ccccc1N(C(=O)c1ccccc1)C2c1ccc(F)cc1` (centres unmarked) [11b], 2000 ± 200 nM.

`CC1(C)CC(=O)C2=C(C1)Nc1ccccc1N(C(=O)c1ccccc1)C2c1ccc(C(F)(F)F)cc1` (centres unmarked) [11k] gave a half-inhibitory concentration (IC50) of 2000 ± 200 nM.

`CN(C)c1ccc(C2C3=C(CC(C)(C)CC3=O)Nc3ccccc3N2C(=O)c2ccccc2)cc1` (centres unmarked) [11l] yielded a half-inhibitory concentration (IC50) of 10600 ± 1700 nM.

The compound `COc1ccc(C2C3=C(CC(C)(C)CC3=O)Nc3ccccc3N2C(=O)c2ccccc2)cc1OC` (centres unmarked) [11w] displayed a half-maximal inhibitory concentration (IC50) of 7100 ± 2300 nM.

In turn, `CCOc1cc(C2C3=C(CC(C)(C)CC3=O)Nc3ccccc3N2C(=O)c2ccccc2)ccc1OCc1ccc(Cl)cc1` (centres unmarked) [11aa] had an IC50 greater than 80000 nM. Still for that read-out and setting: the value for `COc1cccc(C2C3=C(CC(C)(C)CC3=O)Nc3ccccc3N2C(=O)c2ccccc2)c1` (centres unmarked) [11p] was 3200 ± 500 nM. Same read-out and setting: the value for `CC1(C)CC(=O)C2=C(C1)Nc1ccccc1N(C(=O)c1ccccc1)C2c1ccccc1Cl` (centres unmarked) [11t] was greater than 40000 nM; that for `CCCCCOc1ccc(C2C3=C(CC(C)(C)CC3=O)Nc3ccccc3N2C(=O)c2ccccc2)cc1` (centres unmarked) [11j] was 1200 ± 100 nM; that for `CC1(C)CC(=O)C2=C(C1)Nc1ccccc1N(C(=O)c1ccccc1)C2c1ccccc1F` (centres unmarked) [11s] was 19900 ± 8900 nM.

The assay is the same for the next values; noted with them: read-out: B^0AT2 IC50; inhibitor.
`COc1c(Cl)cc(Cl)cc1C1C2=C(CC(C)(C)CC2=O)Nc2ccccc2N1C(=O)c1ccccc1` (centres unmarked) [11ac]: the IC50 was greater than 80000 nM.

Another assay deals with T1, B^0AT2/SLC6A15 (eGFP-hSLC6A15). Briefly: cell-based. Further details: species or system HEK293 eGFP-hSLC6A15.
Settings: not given
The source holds these as a separate data set.
Turning to `COc1ccc(C2CC(=O)C3=C(C2)Nc2ccccc2N(C(=O)c2ccccc2)C3c2cccc(OC)c2)cc1` (centres unmarked) [14i], the 50% inhibitory concentration (IC50) is greater than 80000 nM. Same read-out and setting: the value for `O=C1CC(c2ccccc2)CC2=C1C(c1ccccc1)N(C(=O)c1ccccc1)c1ccccc1N2` (centres unmarked) [14a] was 1100 ± 100 nM; that for `CC1CC(=O)C2=C(C1)Nc1ccccc1N(C(=O)c1ccccc1)C2c1cc(F)cc(F)c1` (centres unmarked) [14m] was 700 ± 50 nM. Still for that read-out and setting: the value for `COc1ccc(C2CC(=O)C3=C(C2)Nc2ccccc2N(C(=O)c2ccccc2)C3c2ccc(OC)cc2)cc1` (centres unmarked) [14e] was 1200 ± 200 nM; that for `Cc1ccc(C2C3=C(CC(c4ccc(Cl)cc4)CC3=O)Nc3ccccc3N2C(=O)c2ccccc2)cc1` (centres unmarked) [14j] was greater than 80000 nM; that for `COc1ccc(C2CC(=O)C3=C(C2)Nc2ccccc2N(C(=O)c2ccccc2)C3c2ccccc2)cc1` (centres unmarked) [14b] was 1000 ± 100 nM. Compound `COc1cccc(C2C3=C(CC(c4ccccc4)CC3=O)Nc3ccccc3N2C(=O)c2ccccc2)c1` (centres unmarked) [14h] yielded an IC50 greater than 80000 nM. The same measure, in the same setting: the value for `COc1ccc(C2C3=C(CC(c4ccc(C)cc4)CC3=O)Nc3ccccc3N2C(=O)c2ccccc2)cc1OC` (centres unmarked) [14g] was 2100 ± 500 nM. Still for that read-out and setting: the value for `Cc1ccc(C2C3=C(CC(c4ccccc4F)CC3=O)Nc3ccccc3N2C(=O)c2ccccc2)cc1` (centres unmarked) [14l] was greater than 80000 nM; that for `Cc1ccc(C2C3=C(CC(c4cccc(Cl)c4)CC3=O)Nc3ccccc3N2C(=O)c2ccccc2)cc1` (centres unmarked) [14k] was greater than 80000 nM.

For another assay the target is unchanged. Kind of assay: cell-based. Further details: species or system HEK293 eGFP-hSLC6A15.
Settings: not given
The source holds these as a separate data set.
Regarding `CC1(C)CC(=O)C2=C(C1)Nc1ccccc1N(C(=O)c1ccccc1)C2c1c[nH]c2ccccc12` (centres unmarked) [12h], the 50% inhibitory concentration (IC50) was greater than 30000 nM. `O=C1CCCC2=C1C(c1cccnc1)N(C(=O)c1ccccc1)c1ccccc1N2` (centres unmarked) [12a] showed an IC50 of 1600 ± 300 nM.

On to `Cn1cccc1C1C2=C(CC(C)(C)CC2=O)Nc2ccccc2N1C(=O)c1ccccc1` (centres unmarked) [12g], for which the IC50 was greater than 80000 nM. `CC1(C)CC(=O)C2=C(C1)Nc1ccccc1N(C(=O)c1ccccc1)C2c1cccnc1` (centres unmarked) [12c] came in with an IC50 of 1900 ± 400 nM. Still for that read-out and setting: the value for `Cc1ccc(C2C3=C(CC(C)(C)CC3=O)Nc3ccccc3N2C(=O)c2ccccc2)o1` (centres unmarked) [12f] was 2600 ± 200 nM; that for `O=C1CCCC2=C1C(c1ccco1)N(C(=O)c1ccccc1)c1ccccc1N2` (centres unmarked) [12b] was 5100 ± 2000 nM. On the same count and under the same terms, the result for `CC1(C)CC(=O)C2=C(C1)Nc1ccccc1N(C(=O)c1ccccc1)C2c1ccccn1` (centres unmarked) [12d] reads 3900 ± 800 nM; that for `CC1(C)CC(=O)C2=C(C1)Nc1ccccc1N(C(=O)c1ccccc1)C2c1ccco1` (centres unmarked) [12e], 1300 ± 100 nM.

Still in this assay, the particulars now being: read-out: B^0AT2 IC50; inhibitor.
As for `CC1(C)CC(=O)C2=C(C1)Nc1ccccc1N(C(=O)c1ccccc1)C2c1ccc(-c2ccc(Br)cc2)o1` (centres unmarked) [12i], the IC50 was greater than 80000 nM.

For a further assay the target is unchanged. Kind of assay: cell-based. Further details: species or system HEK293 eGFP-hSLC6A15.
Settings: not given
The source holds these as a separate data set.
`COc1ccc(C2C3=C(CC(C)(C)CC3=O)Nc3ccccc3N2C(=O)c2ccc(Cl)cc2)cc1OC` (centres unmarked) [13g] had an IC50 greater than 80000 nM. The same measure, in the same setting: the result for `COc1cc(C2Nc3ccccc3NC3=C2C(=O)CCC3)ccc1O` (centres unmarked) [13a] reads greater than 80000 nM; that for `Cc1ccc(C(=O)N2c3ccccc3NC3=C(C(=O)CCC3)C2c2ccccc2)cc1` (centres unmarked) [13i], greater than 80000 nM. Same read-out and setting: the result for `O=C1CCCC2=C1C(c1ccccc1)N(C(=O)c1ccco1)c1ccccc1N2` (centres unmarked) [13l] reads greater than 55000 nM; that for `CC1(C)CC(=O)C2=C(C1)Nc1ccccc1N(Cc1ccccc1)C2c1ccccc1` (centres unmarked) [13d], greater than 80000 nM. Still for that read-out and setting: the value for `CC1(C)CC(=O)C2=C(C1)Nc1ccccc1NC2c1ccccc1` (centres unmarked) [13c] was greater than 80000 nM. Compound `O=C1CCCC2=C1C(c1ccccc1)N(C(=O)C1CCCCC1)c1ccccc1N2` (centres unmarked) [13k] registered an IC50 greater than 80000 nM.

`COc1ccc(C(=O)N2c3ccccc3NC3=C(C(=O)CCC3)C2c2ccccc2)cc1` (centres unmarked) [13j]: the IC50 is greater than 80000 nM. In turn, `COc1ccc(C2C3=C(CC(C)CC3=O)Nc3ccccc3N2C(=O)c2ccc(F)cc2)cc1` (centres unmarked) [13f] had a half-inhibitory concentration (IC50) of 9000 ± 11000 nM. On the same count and under the same terms, the value for `CCCCOc1ccc(C2C3=C(CC(C)(C)CC3=O)Nc3ccccc3N2C(=O)c2ccccc2F)cc1` (centres unmarked) [13e] was 1400 ± 100 nM; that for `O=C1CCCC2=C1C(c1ccccc1)N(C(=O)c1ccc(Cl)cc1)c1ccccc1N2` (centres unmarked) [13h] was greater than 80000 nM. Same read-out and setting: the value for `O=C1CCCC2=C1C(c1ccccc1)N(C(=O)c1ccc3ccccc3c1)c1ccccc1N2` (centres unmarked) [13m] was greater than 80000 nM.

The same assay, now with this note: read-out: B^0AT2 IC50; inhibitor.
For `CCOc1cc(C2C3=C(CCCC3=O)Nc3ccccc3N2C(=O)CC)ccc1O` (centres unmarked) [13b], the half-inhibitory concentration (IC50) was greater than 80000 nM.

A further assay addresses SERT (hSERT) (Homo sapiens, UniProt P31645). Briefly: 3H-5HT uptake inhibition, HEK293, 384-well. It is filed as cell-based.
Settings: not given
Compound `COc1cc(C2C3=C(CC(C)(C)CC3=O)Nc3ccccc3N2C(=O)c2ccccc2)ccc1O` (centres unmarked) [11v] showed a half-inhibitory concentration (IC50) greater than 80000 nM.

The values are drawn from article doi:10.1101/2025.03.25.645215v1 (biorxiv, 2025).
